{"source": "patent US9687453B2", "about": "“Solid pharmaceutical composition” (KYORIN PHARMACEUTICAL CO., LTD., priority 2013, dated 2017)", "assay": "pH of acidic substance (2.5% liquid in water, pH meter)", "format": "physicochemical", "details": "50 mg in 1,950 μL of water (concentration 2.5%)", "experimental": "The “acidic substance” described herein is a substance which is dissolved in water to generate hydrogen ions."}
{"smiles": "Cl.N[C@@H](CCC(=O)O)C(=O)O", "note": "[L-glutamic acid hydrochloride]", "values": [{"measurement": "pH", "result": "≤ 3.5"}]}
